Assay results from patent publication US4211764A, “Gastric secretion stimulation with 2-amino-5-(2-aminoethyl)-1,3,4-thiadiozole” (priority 1978, dated 1980).
Where a name gives a salt, the structure may show the parent alone. Read-outs that look alike come from different tables or passages of the source.

Experiments:
gastric secretion [1] = details: cited from earlier work; for secretory effect per os: introduced per os, clinical conditions, inactivated by the liver and enzymes
gastric secretion [2] = assay type: in vivo, human; details: hypodermic or intramuscular
From the text: (§1) Special attention was paid to side effects and the reproductibility of the secretory response after repeated administrations of the drug.
The clinical investigation also helped to determine effective doses of the proposed preparation for submaximum and maximum tests and different forms of administration.

[3] = Physical properties of the dichlorohydrate; assay type: physicochemical
From the text: The dichlorohydrate of this compound is white-yellowish crystalline powder. […] Solution of this compound in 0.01 M of hydrochloric acid at a concentration of 10^-4 M has a characteristic absorption spectrum in the UV range with a maximum of 245±±1 nanometers.

H1 -receptors = target: T1, H1 -receptors (Cavia porcellus, UniProt P31389); test: Contraction of isolated ileum; details: guinea pig ileum; read-out: pD2 value in relation to H1 -receptors (converted)
T1 construct: from tissue; host or cells: isolated guinea pig ileum

H2 -receptors [4] = target: T2, H2 -receptors (Cavia porcellus, UniProt P47747); test: Heart rate of isolated auricles; details: isolated guinea pig auricles; read-out: pD2 value, H2 -receptors (heart rate) (converted)
T2 construct: from tissue; host or cells: isolated guinea pig auricles (atria)
Experimental: Changes in the heart rate were measured, dose-response curves were plotted, and pD2 values were calculated.

H2 -ceptors = H2 -ceptors (Canis lupus familiaris, UniProt P17124); test: Gastric secretion in dogs with gastric fistula, intramuscular injection; details: animal (dog)
Experimental: (§2) Chronic experiments were performed on male dogs weighing 20 to 25 kg and having a gastric fistula; prior to experiments, the animals were starved for 18 hours.
The gastric juice was analyzed for titratable acidity and proteolytic activity. The hydrochloric acid output was calculated in milliequivalents (mEq) and that of pepsin in milligrams.

H2 -receptors [5] = target: H2 -receptors (Rattus norvegicus, UniProt P25102); details: uterus horn
Experimental: Contractions of an isolated horn of uterus of a rat due to the effect of acetylcholine in a concentration of 1.10^-6 M were recorded on a paper tape.

arterial pressure [6] = test: Arterial pressure in anesthetized cats; details: in vivo, iv, 0.1 mg/kg
Experimental: These experiments were performed on 11 cats weighing 2.5 to 4.0 kg and anesthetized with urethane-chlorazol mixture containing 60 mg/kg of chlorazol and 600 mg/kg of urethane. The arterial pressure was measured in the common carotid artery with the aid of a mercury pressure gauge.

dog's stomach = test: Gastric secretion in dogs, administration per os; assay type: in vivo; details: thidazine 100 mg per head (parenterally and per os), histamine 10 and 20 mg, histalog 50 and 100 mg
Experimental: as §2

[7] = system: cardiovascular system (hypotension); details: relative to histamine; cited from earlier work
[8] = cited from earlier work
arterial pressure [9] = test: Arterial pressure in rabbits; details: intravenous, thidazine 0.1 mg/kg, equimolar doses of histamine and histalog
Experimental: In a series of experiments of 18 rabbits weighing 2.5 to 3.5 kg, each having the common carotid artery in a cutaneous flap, the preparations were injected intravenously.

[10] = system: gastric secretion of patients with duodenal ulceration; test: Clinical comparison in patients with duodenal ulceration; assay type: in vivo, human
From the text: as §1
Histamine and Pentagastrin Upon Main Gastric Secretion
Characteristics of Patients With Duodenal Ulceration

[11] = system: gastric secretion of patients; test: Clinical comparison of thidazine with simple histamine test; assay type: in vivo, human; details: 20 patients; thidazine 1.5 mg/kg parenteral, histamine 0.01 mg/kg; >0.05
From the text: as §1

total acidity = test: Clinical reproducibility of secretory response (total acidity); assay type: in vivo, human; details: 0.01 mg/kg hypodermic
From the text: as §1
Reproducibility of Secretory Response to Introduction
of Thidazine and Histamine with Reference to Total
Acidity Values (each group of patients includes 10 persons)
^(x) Percentage of difference is the relationship of the difference
between the total acidity values registered in the first and second tests
of a patient to the greater of these values.

H2 -receptors [12] = test: Prevention of thidazine-induced gastric secretion by an H2 -antagonist; assay type: in vivo, dog; details: dogs, methiamide 30 mg/kg before thidazine 2 mg/kg intramuscular
[13] = system: gastric secretion of patients of middle age group; test: Clinical test: effects of maximum doses upon gastric secretion of patients; assay type: in vivo, human; details: for Hourly HCl output: 15 observations
From the text: as §1

Sequence of H2 -ceptors (P17124 whole entry): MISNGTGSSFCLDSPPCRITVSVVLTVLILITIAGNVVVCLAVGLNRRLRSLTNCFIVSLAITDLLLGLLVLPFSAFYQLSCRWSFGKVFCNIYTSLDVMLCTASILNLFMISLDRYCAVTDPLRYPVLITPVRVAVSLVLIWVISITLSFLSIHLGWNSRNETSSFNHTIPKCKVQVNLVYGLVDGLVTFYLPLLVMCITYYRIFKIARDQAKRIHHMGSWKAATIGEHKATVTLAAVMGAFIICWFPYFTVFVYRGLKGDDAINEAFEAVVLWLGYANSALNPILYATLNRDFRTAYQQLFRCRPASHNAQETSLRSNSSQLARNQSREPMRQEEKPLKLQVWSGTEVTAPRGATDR
Sequence of H2 -receptors (Rattus norvegicus, UniProt P25102) (P25102 whole entry): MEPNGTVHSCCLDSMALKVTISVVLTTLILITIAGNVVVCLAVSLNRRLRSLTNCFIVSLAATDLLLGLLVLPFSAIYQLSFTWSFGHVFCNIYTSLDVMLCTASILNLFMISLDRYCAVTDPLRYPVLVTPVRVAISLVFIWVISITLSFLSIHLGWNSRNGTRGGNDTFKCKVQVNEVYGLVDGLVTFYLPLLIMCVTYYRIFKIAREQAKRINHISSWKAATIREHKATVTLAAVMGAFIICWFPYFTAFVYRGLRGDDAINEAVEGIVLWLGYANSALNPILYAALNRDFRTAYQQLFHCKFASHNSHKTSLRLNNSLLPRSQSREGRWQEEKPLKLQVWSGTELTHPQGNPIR
T1 sequence (P31389 whole entry): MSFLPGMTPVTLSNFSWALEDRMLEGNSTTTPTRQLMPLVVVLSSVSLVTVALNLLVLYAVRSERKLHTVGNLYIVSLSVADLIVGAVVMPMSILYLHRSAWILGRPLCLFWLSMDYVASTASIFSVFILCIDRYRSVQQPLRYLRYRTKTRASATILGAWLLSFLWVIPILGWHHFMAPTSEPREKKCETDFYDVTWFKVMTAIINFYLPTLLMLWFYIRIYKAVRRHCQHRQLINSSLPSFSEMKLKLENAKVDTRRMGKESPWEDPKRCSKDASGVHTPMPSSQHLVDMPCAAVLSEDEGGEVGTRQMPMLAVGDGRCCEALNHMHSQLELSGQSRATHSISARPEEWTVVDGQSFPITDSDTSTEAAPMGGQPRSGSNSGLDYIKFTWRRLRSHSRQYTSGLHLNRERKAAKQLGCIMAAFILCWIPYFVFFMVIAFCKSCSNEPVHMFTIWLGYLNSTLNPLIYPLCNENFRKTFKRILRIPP
T2 sequence (P47747 whole entry): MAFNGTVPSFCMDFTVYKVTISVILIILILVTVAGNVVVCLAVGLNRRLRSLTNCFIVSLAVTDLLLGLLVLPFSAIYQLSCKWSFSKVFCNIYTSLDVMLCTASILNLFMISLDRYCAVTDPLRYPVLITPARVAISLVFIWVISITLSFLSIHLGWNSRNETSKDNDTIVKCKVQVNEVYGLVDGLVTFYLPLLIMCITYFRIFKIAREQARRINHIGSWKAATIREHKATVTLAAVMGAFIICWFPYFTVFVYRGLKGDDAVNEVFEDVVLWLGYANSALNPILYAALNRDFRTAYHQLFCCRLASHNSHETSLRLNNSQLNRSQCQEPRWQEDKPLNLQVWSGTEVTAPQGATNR

Cc1[nH]cnc1CCN [5-methylhistamine]
secretory effect per os (gastric secretion [1]): no secretory effect is produced

Cl.Cl.NCCc1c[nH]cn1 [Histamine dichloride, reference compound]
dose for maximum secretion test (gastric secretion [2]): 0.025 mg/kg | dose for submaximum secretion test (gastric secretion [2]): 0.008 mg/kg

NCCc1nnc(N)s1 [dihydrochloride of 2-amino-5-(2-aminoethyl)-1,3,4-thiadiazole]
stability of aqueous solution [3]: stable over prolonged periods of time | hygroscopicity ([3]; powder): poor hygroscopicity | reaction (acidity) of solution ([3]; solutions before neutralization to pH 6 to 7): strongly acidic reaction | solubility in water ([3]; water): readily soluble in water

NCCc1cc[nH]n1 [histalog, 3-(5)-(2-aminoethyl)pyrazole, reference compound]
EC50 (H1 -receptors): 58.9 µM | secretory response of the stomach (gastric secretion [1]; humans, parenteral, 1 to 5 mg/kg): maximum secretory response of the stomach | secretory effect per os (gastric secretion [1]): no secretory effect is produced | capability of stimulating gastric secretion, times less effective than histamine (gastric secretion [1]; relative to histamine): 70 times | EC50 (H2 -receptors [4]): 15.8 µM | production of maximum level of hydrochloric acid secretion in the stomach (H2 -ceptors): can produce a maximum level of hydrochloric acid secretion | dose for maximum secretion test (gastric secretion [2]): 1.7 mg/kg | dose for submaximum secretion test (gastric secretion [2]): 0.9 mg/kg | Emax (H2 -receptors [5]): 16% | reduction of arterial pressure (arterial pressure [6]): 30 mm of mercury | gastric secretion after administration per os (dog's stomach): no gastric secretion | hypotensive effect, times as low as that of histamine [7]: 700 times | side effects ([8]; in vivo): side effects are observed far less frequently than in the case of histamine

NCCc1c[nH]cn1 [histamine, reference compound]
reduction of arterial pressure (arterial pressure [9]): 40 mm of mercury | secretory effect per os (gastric secretion [1]): no secretory effect is produced | production of maximum level of hydrochloric acid secretion in the stomach (H2 -ceptors): can produce a maximum level of hydrochloric acid secretion | Chymosin Output ([10]; 1st hour (basal secretion)): 16.0 ± 0.008 units per hour | Pepsin Output ([10]; 1st hour (basal secretion)): 3.7 ± 1.2 units per hour | Secretion, milliequivalents per hour ([10]; 1st hour (basal secretion)): 7.0 ± 1.2 Milliequivalents per hour | Chymosin Output ([10]; 2nd hour): 16.4 ± 0.04 units per hour | Pepsin Output ([10]; 2nd hour): 4.8 ± 3.0 units per hour | Secretion, milliequivalents per hour ([10]; 2nd hour): 19.4 ± 1.6 Milliequivalents per hour | Emax (H2 -receptors [5]): 100% | reduction of arterial pressure (arterial pressure [6]): 100 mm of mercury | gastric secretion after administration per os (dog's stomach): no gastric secretion | Free Acidity [11]: 81.7+21 units | HCl Output [11]: 12+0.4 milliequivalents per hour | Peak HCl Output [11]: 8.8+0.2 milliequivalents | Total Acidity [11]: 92.0+23 units | side effects ([8]; patients): reddening of the skin, nausea, vomiting, headache, dizziness, bronchospasm, edema of the rima vocalis, hypotension, and shocks | % of difference (fluctuations) of total acidity, first and second tests (total acidity): 0-53% | Average difference of total acidity (total acidity): 33%

CNC(=S)NCCSCc1nc[nH]c1C [methiamide]
prevention of thidazine secretory effect (H2 -receptors [12]): completely prevented

CSCC[C@H](NC(=O)[C@H](Cc1c[nH]c2ccccc12)NC(=O)CCNC(=O)OC(C)(C)C)C(=O)N[C@@H](CC(=O)O)C(=O)N[C@@H](Cc1ccccc1)C(N)=O [pentagastrin, reference compound]
secretory effect per os (gastric secretion [1]): no secretory effect is produced | duration of effect of a single dose (gastric secretion [1]; single dose): does not last long | level of secretion (gastric secretion [1]; sufficient dose): can produce a maximum level of secretion | Chymosin Output ([10]; 1st hour (basal secretion)): 157.3 ± 5.9 units per hour | Pepsin Output ([10]; 1st hour (basal secretion)): 3.3 ± 0.8 units per hour | Secretion, milliequivalents per hour ([10]; 1st hour (basal secretion)): 7.4 ± 0.8 Milliequivalents per hour | Pepsin Output ([10]; 2nd hour): 19.3 ± 3.8 units per hour | Secretion, milliequivalents per hour ([10]; 2nd hour): 24.8 ± 1.5 Milliequivalents per hour | HCl Concentration ([13]; 1st hour (basal secretion)): 35.3 milliequivalents per liter | HCl Concentration ([13]; 2nd hour (response to drug)): 94.0 milliequivalents per liter | Gastric Juice, Δ% ([13]; 2nd versus 1st hour): +63.7% | Hourly HCl output, Δ% ([13]; 2nd versus 1st hour): +345.9% | Hourly HCl output ([13]; 1st hour (basal secretion)): 3.7 milliequivalents per hour | Hourly HCl output ([13]; 2nd hour (response to drug)): 16.5 milliequivalents per hour | Gastric Juice ([13]; pentagastrin 6 mg/kg, 1st hour (basal secretion)): 106.3 ml per hour | Gastric Juice ([13]; pentagastrin 6 mg/kg, 2nd hour (response to drug)): 174.0 ml per hour | HCl Concentration, Δ% ([13]; pentagastrin 6 mg/kg, 2nd versus 1st hour): +166.3% | side effects ([8]; patients): can produce allergic and anaphylactic reactions as a result of repeated administrations
